In patent publication US6235891A, “Glucocorticoid receptor agonist and decreased PP5” (South Alabama Medical Science Foundation, priority 1999, dated 2001):

Tests used:
Type in all cases: cell-based, human
A549 cells [1] = assay: [3H]-thymidine incorporation (DNA synthesis) in A549 cells; settings: 300 nM, all 5 days
Method: Cells were pulse-labeled with [^3 H]-thymidine for 5 hours at intervals over the next five days. Cells were lysed and [^3 H]-thymidine incorporation (indicative of DNA synthesis) was determined by liquid scintillation counting.
At timed intervals during the next 5 days, cells were pulse-labeled with [^3 H]-thymidine (0.5 μCi/ml) for 5 hours. […] The results given are the mean of three independent experiments.

A549 cells [2] = assay: A549 cell proliferation (viable cell counts); settings: 300 nM, all 5 days
Method: A549 cells were treated with ISIS 15534 or its scrambled control, ISIS 15521 at a concentration of 300 nM. Each day for the next 5 days, viable cells were counted.
A549 cells were seeded in 12-well tissue culture plates at about 50% confluence in DMEM containing 10% fetal bovine serum. The next day, cells were treated with the PP5-specific antisense oligonucleotide, ISIS 15534, or its scrambled control, ISIS 15521, at a final concentration of 300 nM as described in Example 7. On each of the following 5 days, cultures from three wells of each treatment gruop were trypsinized, collected and counted. Cell viability was determined by trypan blue staining, and the results given are the mean of three independent experiments.
A549 cells were seeded in 12-well tissue culture plates at a density of 5.0×10^4 cell/dish. On the next day, the cells were treated with PP5 specific antisense oligonucleotides (ISIS 15534) or the scrambled mismatch control (ISIS 15521) at a final concentration of 300 nM as described above. On each of the next five days, the cell cultures were treated briefly with trypsin to detach the cells from the dish (three wells from each test group). The number of cells was then determined by counting using a hemacytometer. Cell viability was determined with trypan blue staining. The percentage of viable cells was calculated by dividing the number of cells excluding trypan blue by the total number of cells, and the results are reported as the mean +/- SD of data collected from three independent experiments.
The antiproliferative effect of dexamethasone correlates with the presence of wild type p53 and the expression of p21^Waf1/Cip1 mRNA. Referring to FIGS. 1A-1C, the effect of dexamethasone on cell proliferation in p53-defective T-24 human bladder carcinoma, p53-null TR9 human fibroblasts (Webster et al. 1993; Maiyar et al. 1996), and p53 wild-type A549 human lung carcinoma cells was determined by treating cells in log-phase growth with a single dose of 100 nM dexamethasone and counting the number of cells in treated (.cndot.) and untreated (.box-solid.) cultures for six consecutive days following treatment. Each point represents the mean of triplicate dishes with error bars representing SE. Under similar conditions, treatment with ISIS 15534, a potent inhibitor of PP5 gene expression, inhibited growth in A459 but not T-24 or TR9 cells (Zuo et al. 1998). Referring to FIG. 1D, a comparison of p21^Waf1/Cip1 (p21) and serum glucocorticoid inducible protein kinase (sgk) mRNA levels in p53 competent (Lanes 3, 4) and p53 deficient (Lanes 1, 2, 5, 6) cell cultures after dexamethasone treatment is shown. Cell cultures in logphase growth were treated with 100 nM dexamethasone (+) or vehicle alone as a control (-). After 24 hours total mRNA was prepared and analyzed for p21 and sgk mRNA levels by Northern analysis.

PP5 mRNA = assay: Northern blot analysis of PP5 mRNA expression in A549 cells; settings: doses of 25 to 500 nM
Excerpt: The oligonucleotides shown in Table 1 were designed using the Genbank sequences HSSERTHRP (Genbank accession number X92121), HSRNAPPP5 (Genbank accession number X89416) and PPP5C (Genbank accession number U25174), synthesized and tested for inhibition of PP5 mRNA expression in A549 cells using a Northern blot assay. All oligonucleotides shown in Table 1 are chimeric oligonucleotides with central 2'-deoxy "gaps," which have phosphorothioate backbones, flanked on both sides by 2'-methoxyethoxy (2'-MOE) "wings" (shown in bold), which have phosphodiester backbones. All cytosines in the 2'-MOE wings are 5-methylcytosines.
In the initial screen, A549 cells were treated with oligonucleotides at a concentration of 300 nM oligonucleotide for four hours in the presence of […] lipofectin. Results were normalized and expressed as a percent of control. The effect of each oligonucleotide on levels of PP5 mRNA, expressed as approximate percent inhibition compared to control, is shown in Table 1. In this initial screen, oligonucleotides giving a reduction of PP5 mRNA of approximately 50% or greater were considered active. […] These sequences (SEQ ID NO: 1, 2, 3, 4, 6, 7 and 12, respectively, SEQ ID Nos shown in bold in Table 1) are therefore preferred.
These oligonucleotides were tested for their ability to reduce PP5 mRNA levels in A549 cells, using oligonucleotide doses of 25 to 500 nM.
The human lung tumor cell line A549 was obtained from the American Type Culture Collection (Rockville Md.) and were grown in DMEM (Gibco BRL, Gaithersburg Md.), supplemented with 10% fetal calf. Cells were seeded on 60 mm plates. When they reached 70% confluency, they were washed with DMEM and 1 ml of DMEM containing 15 μg/ml DOTMA/DOPE (Lipofectin®, GIBCO-BRL) and oligonucleotide at desired concentration was added. Duplicate dishes were used for each treatment condition. After 4 hours of treatment at 37°, cells were washed and cultured in fresh DMEM containing 10% fetal bovine serum for an additional 17 hours. Cells were then harvested and total RNA was extracted with TRIzol Reagent (GIBCO-BRL) according to manufacturer's protocol. Total RNA (20 μg) was fractionated on a 1% agarose gel containing formaldehyde, and transferred to a DURLON-UV (Stratagene) nylon membrane. Following UV crosslinking, the filters were hybridized with the appropriate protein phosphatase probe. The ^32 P-labeled human PP cDNA probes are generated with DECAPrime® DNA Labeling Kit (Ambion) according to the manufacturer's protocol. Hybridization was performed in a hybridization solution containing 50% formamide at 42° for 16 hours. This was followed by two low stringency washes (2×SSC) at room temperature and two high stringency washes (0.1×SSC/0.5% SDS) at 55° C. Hybridization signals were visualized by autoradiography, and filters were then stripped and reprobed with a ^32 P-labeled glyceraldehyde-3-phosphate dehydrogenase (GAPDH) probe to confirm equal loading. The densities of hybridization signals were measured with the NIH Image program (ImagePC).
The cells were harvested, and total RNA was extracted with TRIzol® Reagent according to the methods of the manufacturer. Total RNA (20 μg) was fractionated on 1% agarose gels containing formaldehyde and transferred to DURLON-UV nylon membranes (Stratagene). Following UV cross-linking, the filters were hybridized with a [α^32 P]probe for human PP5. The human PP5 cDNA probe was generated from the full length coding region of PP5 and [α^32 P]-dATP was labeled with DECAprime® DNA Labeling Kit according to the manufacturer's protocol. Hybridization was performed in the presence of 50% formamide, 0.1 M Pipes, 0.8 M NaCl, 5×Denhardt's solution, 100 μg/ml denatured herring sperm DNA, 1×10^6 cpm/ml [α-^32 P]-labeled probe and 10% dextran sulfate at 42° C. for 16 hours. Following hybridization, the membrane was subjected to two low stringency washes (2×SSC) at room temperature and then two high stringency washes (0.1×SSC/0.5% SDS) at 55° C. […]

ISIS 15521: mismatch (scrambled) control oligonucleotide, phosphodiester wings, phosphorothioate gap; GTGCGATCGTTGCGGTTAGC, SEQ ID NO: 14 (sugars by position and backbone not given here; phosphodiester wings, phosphorothioate gap) [reference compound]
[3H]-thymidine incorporation relative to untreated control (A549 cells [1]): approximately equivalent to untreated control
Proliferation relative to untreated control (A549 cells [2]): approximately equivalent to untreated control
Inhibition of PP5 mRNA levels at any of the doses tested (PP5 mRNA): ≤ 20%
